The text below walks through data of article PMC7816197 (Journal of Medicinal Chemistry, 2020).

One series has as its target human NAPE-PLD (Homo sapiens, UniProt Q6IQ20). As to the kind of experiment: NAPE-PLD PED6 surrogate substrate activity assay. It is filed as biochemical. The note with it: for fold increase in potency/activity: compared to 2; for fold drop in potency: compared to hit 2; for inhibitory activity in words: PED6 assay, human NAPE-PLD.
The subject of a further series is HEK293 cells. The note with it: cited from earlier work.
Series [1] relates to brains of freely moving mice. To be noted: cited from earlier work.
The next series concerns Neuro-2a cells. To be noted: cited from earlier work.
For series [2] the following is noted: not suited for in vivo use; cited from earlier work.

human NAPE-PLD, sequence (Q6IQ20 whole entry): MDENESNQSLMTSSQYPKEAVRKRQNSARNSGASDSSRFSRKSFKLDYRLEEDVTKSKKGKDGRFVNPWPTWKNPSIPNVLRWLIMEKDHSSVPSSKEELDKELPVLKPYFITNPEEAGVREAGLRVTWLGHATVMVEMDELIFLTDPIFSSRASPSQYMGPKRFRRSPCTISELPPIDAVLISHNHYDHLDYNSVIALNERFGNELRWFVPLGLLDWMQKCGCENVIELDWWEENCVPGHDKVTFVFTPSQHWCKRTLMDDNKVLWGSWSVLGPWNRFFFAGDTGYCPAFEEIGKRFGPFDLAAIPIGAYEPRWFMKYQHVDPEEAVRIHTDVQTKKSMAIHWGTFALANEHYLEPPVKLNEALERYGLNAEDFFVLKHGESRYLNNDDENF

`O=C(NCC1CC1)c1cc(N2CCOCC2)nc(N2CCCC(c3ccccc3)C2)n1` (racemic) [Compound 62, (±)-N-(Cyclopropylmethyl)-6-morpholino-2-(3-phenylpiperidin-1-yl)pyrimidine-4-carboxamide]: the “fold increase in potency/activity” value on human NAPE-PLD was 2 fold.
Take `O=C(NCC1CC1)c1cc(N2CCOCC2)nc(N2CCCC2Cc2ccccc2)n1` (racemic) [Compound 63, (±)-2-(2-Benzylpyrrolidin-1-yl)-N-(cyclopropylmethyl)-6-morpholinopyrimidine-4-carboxamide]: the “fold increase in potency/activity” value on human NAPE-PLD came to 2 fold.
In turn, `O=c1[nH]c(=O)c2cc(S(=O)(=O)Nc3ccc(-c4ccncc4)cc3)ccc2[nH]1` [ARN19874] displayed an IC50 against human NAPE-PLD of 54 µM. Moreover, in the series on HEK293 cells, the NAE levels result was “did not affect” and the NAPE levels result was “increase”.
For `O=C(NCC1CC1)c1cc(N2CC[C@H](O)C2)nc(N2CCC[C@@H](c3ccccc3)C2)n1` [Compound 1, N-(Cyclopropylmethyl)-6-((S)-3-hydroxypyrrolidin-1-yl)-2-((S)-3-phenylpiperidin-1-yl)pyrimidine-4-carboxamide], the “anandamide levels in mouse brain” value in series [1] (30 mg/kg, intraperitoneal injection) is given as “decreased”. Besides, the “NAE levels including anandamide” value (in series [1] (brains of freely moving mice); in the series with Neuro-2a cells) was “reduced” throughout. In addition, the “turnover of PED6” value at human NAPE-PLD (at a dose of 10 μM, full efficacy) is reported as “completely blocked”. Further, on human NAPE-PLD, the “fold increase in potency/activity” value worked out at 10 fold.
With `CN(CCc1ccccc1)c1cc(N2CCOCC2)cc(C(=O)NCC2CC2)n1` [Compound 3, N-(Cyclopropylmethyl)-6-(methyl(phenethyl)amino)-4-morpholino-picolinamide], the “fold drop in potency” value on human NAPE-PLD is 10 fold.
In the case of `CN(CCc1ccccc1)c1nc(C(=O)NCC2CC2)nc(N2CCOCC2)n1` [Compound 6, N-(Cyclopropylmethyl)-4-(methyl(phenethyl)amino)-6-morpholino-1,3,5-triazine-2-carboxamide], at human NAPE-PLD, the “inhibitory activity in words” value is “completely inactive”.
Still for that read-out and setting: the same measure for `CN(CC1CC1)C(=O)c1cc(N2CCOCC2)nc(N(C)CCc2ccccc2)n1` [Compound 7, N-(Cyclopropylmethyl)-N-methyl-2-(methyl(phenethyl)amino)-6-morpholinopyrimidine-4-carboxamide]: “complete loss of potency”.
Take `CC(C)CNC(=O)c1cc(N2CCOCC2)nc(N(C)CCc2ccccc2)n1` [Compound 15, N-Isobutyl-2-(methyl(phenethyl)amino)-6-morpholinopyrimidine-4-carboxamide]: the “fold drop in potency” value on human NAPE-PLD is listed as 10 fold.
`CN(CCc1ccccc1)c1nc(NC(=O)CC2CC2)cc(N2CCOCC2)n1` [Compound 30, 2-Cyclopropyl-N-(2-(methyl(phenethyl)amino)-6-morpholinopyrimidin-4-yl)acetamide]: the “fold drop in potency” value on human NAPE-PLD worked out at 10 fold.
For `O=C(NCC1CC1)c1cc(N2CCOCC2)nc(Cl)n1` [Compound 31, 2-Chloro-N-(cyclopropylmethyl)-6-morpholinopyrimidine-4-carboxamide], on human NAPE-PLD, the “inhibitory activity in words” value was “inactive”.
On to `O=C(NCC1CC1)c1cc(N2CCOCC2)ncn1` [Compound 32, N-(Cyclopropylmethyl)-6-morpholinopyrimidine-4-carboxamide], for which the “inhibitory activity in words” value against human NAPE-PLD is “inactive”.
On to `CC(C)N(CCc1ccccc1)c1nc(C(=O)NCC2CC2)cc(N2CCOCC2)n1` [Compound 55, N-(Cyclopropylmethyl)-2-(isopropyl(phenethyl)amino)-6-morpholinopyrimidine-4-carboxamide], for which the “fold increase in potency/activity” value on human NAPE-PLD is on record as 2 fold.
Still for that read-out and setting: then `CN(CCc1ccccc1)c1nc(C(=O)NCC2CC2)cc(N2CCCC(F)(F)C2)n1` [Compound 72, N-(Cyclopropylmethyl)-6-(3,3-difluoropiperidin-1-yl)-2-(methyl(phenethyl)amino)pyrimidine-4-carboxamide], with 2 fold; and `CN(C)c1cc(C(=O)NCC2CC2)nc(N(C)CCc2ccccc2)n1` [Compound 81, N-(Cyclopropylmethyl)-6-(dimethylamino)-2-(methyl(phenethyl)amino)pyrimidine-4-carboxamide], with 2 fold.
As for `CN(CCc1ccccc1)c1nc(C(=O)NCC2CC2)cc(N2CCCC2)n1` [Compound 87, N-(Cyclopropylmethyl)-2-(methyl(phenethyl)amino)-6-(pyrrolidin-1-yl)pyrimidine-4-carboxamide], at human NAPE-PLD, the “fold increase in potency/activity” value was around 4 fold.
With `O=C(NCC1CC1)c1cc(N2CC[C@@H](O)C2)nc(N2CCC[C@H](c3ccccc3)C2)n1` [Compound 107, N-(Cyclopropylmethyl)-6-((R)-3-hydroxypyrrolidin-1-yl)-2-((R)-3-phenylpiperidin-1-yl)pyrimidine-4-carboxamide], the fold-reduced activity at human NAPE-PLD ((R,R) enantiomer compared to 1) was 3 fold.
As for `Oc1c(Cl)cc(Cl)c(Cl)c1Cc1c(O)c(Cl)cc(Cl)c1Cl` [hexachlorophene], the neurotoxicity result in series [2] was “neurotoxic effects”.
In the case of `C[C@H](CCC(=O)O)[C@H]1CC[C@H]2[C@@H]3CC[C@@H]4C[C@H](O)CC[C@]4(C)[C@H]3CC[C@]12C` [lithocholic acid, reference compound], the “inhibitory activity in words” value on human NAPE-PLD is “not active”.
